For 42 compounds, IC50 results are on record in patent US10533006B2, “Nitrogen-containing heterocycle and carbocycle derivatives having TrkA inhibitory activity” (Shionogi & Co., Ltd., priority 2016, dated 2020).

T1 sequence (P04629 33-796): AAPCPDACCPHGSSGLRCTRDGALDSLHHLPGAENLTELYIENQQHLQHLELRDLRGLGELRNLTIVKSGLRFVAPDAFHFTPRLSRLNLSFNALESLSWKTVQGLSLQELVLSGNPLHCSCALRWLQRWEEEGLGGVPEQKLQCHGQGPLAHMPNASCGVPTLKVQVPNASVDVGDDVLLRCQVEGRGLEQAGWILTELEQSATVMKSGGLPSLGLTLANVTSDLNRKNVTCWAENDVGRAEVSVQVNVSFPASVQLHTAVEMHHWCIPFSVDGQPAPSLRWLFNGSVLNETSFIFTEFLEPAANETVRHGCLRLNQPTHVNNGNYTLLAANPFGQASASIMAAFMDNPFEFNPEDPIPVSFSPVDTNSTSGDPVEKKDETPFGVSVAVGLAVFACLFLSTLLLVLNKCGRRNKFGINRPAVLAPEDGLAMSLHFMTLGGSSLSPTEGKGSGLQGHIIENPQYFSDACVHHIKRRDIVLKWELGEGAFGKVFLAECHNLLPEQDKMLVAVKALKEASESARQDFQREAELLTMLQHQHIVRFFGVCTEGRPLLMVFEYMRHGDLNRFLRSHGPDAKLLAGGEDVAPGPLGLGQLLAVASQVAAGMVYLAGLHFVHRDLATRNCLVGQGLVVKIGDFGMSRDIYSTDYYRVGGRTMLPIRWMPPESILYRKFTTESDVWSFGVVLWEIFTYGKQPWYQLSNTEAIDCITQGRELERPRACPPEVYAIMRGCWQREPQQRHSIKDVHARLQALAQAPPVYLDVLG

One test has as its target T1, human TrkA (Homo sapiens, UniProt P04629).
T1 construct: purchased Lifetechnologies PV3144
The test can be described thus: Human TrkA inhibition assay. Particulars: human TrkA phosphorylation inhibition, ATP 500 μmol/L; read-out: IC50_nM. It is filed as biochemical. As for the experimental part:
Seven point five L per well of human TrkA (PV3144, Lifetechnologies, final concentration: 1 nmol/L) suspended in the assay buffer (100 mmol/L 4-(2-hydroxyethyl)-1-piperazineethanesulfonic acid (HEPES), 10 mmol/L magnesium chloride, 0.003 vol % Brij-35, 0.004 vol % Tween20 and 1 mmol/L dithiothreitol (DTT)) was applied in a 384 well plate and the plate was pre-incubated for 15 min at room temperature with 0.4 μL of each compound (final concentration: 200 μmol/L-0.1 nM) dissolved in DMSO. Then, fluorescent substrate (FL-peptide 27, 760424, PerkinElmer, final concentration: 1.5 μmol/L) and ATP (final concentration 500 μmol/L) dissolved in the assay buffer was added in each well. After the incubation of 120 min at 37° C., fifteen μL of termination buffer (100 mmol/L HEPES, 40 mmol/L ethylenediaminetetraacetic acid (EDTA), 10 mmol/L magnesium chloride, 0.003 vol % Brij-35, 0.004 vol % Tween20, 1 mmol/L DTT and 0.16 vol % Coating Reagent 3) was added in each well to stop the enzyme reaction. Fluorescent intensities (FI) of phosphorylated and non-phosphorylated fluorescent substrates were measured by LabChip EZReader II (Caliper LifeSciences, Inc.), and conversion ratio (CR) was calculated by the following formula-1. The CR in the well applied with DMSO alone was used as a negative control and the CR in the well without applying TrkA was used as a positive control. The inhibitory effect of each compound on TrkA phosphorylation was calculated by the following formula-2. CR (%)=(FI of phosphorylated substrate/(FI of phosphorylated substrate+FI of non-phosphorylated substrate))×100 (Formula-1) Phosphorylation inhibition (%)=(1−(CR with compound treatment−CR of positive control)/(CR of negative control−CR of positive control))×100 (Formula-2)
IC50 values (nmol/L) were determined by the logistic regression using the inhibition data in 10 points of 3-fold dilution series at a compound concentration range of 2 μmol/L to 0.1 nmol/L, or 15 points of 3-fold dilution series at the range of 200 μmol/L to 0.04 nmol/L.
Turning to `COCCN1C[C@@H](NC(=O)Nc2c(C)c(-c3cnc(C)nc3)nn2-c2ccccc2)[C@H](c2cnc(F)c(F)c2)C1` (racemic) [Compound I-60], the IC50 is < 0.1 µM. Same read-out and setting: next, `CNC(=O)c1ncc(-c2nn(-c3ccccc3)c(NC(=O)N[C@@H]3CN(CCOC)C[C@H]3c3ccccc3)c2C)cc1C` (racemic) [Compound I-61]: < 0.1 µM; `COCCN1C[C@@H](NC(=O)Nc2c(C)c(-c3cnn(C)c3)nn2-c2ccccc2)[C@H](c2cnc(Cl)s2)C1` (racemic) [Compound I-62]: < 0.1 µM. In the case of `COCCN1C[C@@H](NC(=O)Nc2c(C)c(-c3ccnc(C(=O)NO)c3)nn2-c2ccccc2)[C@H](c2ccccc2)C1` (racemic) [Compound I-63], the IC50 was < 0.1 µM.

Regarding `COCCN1C[C@@H](NC(=O)Nc2c(C)c(-c3cnc4c(c3)c(C(=O)OC)nn4C)nn2-c2ccccc2)[C@H](c2ccccc2)C1` (racemic) [Compound I-64], the IC50 was < 0.1 µM. Still for that read-out and setting: next, `COCCN1C[C@@H](NC(=O)Nc2c(C)c(-c3cnc4c(c3)c(CO)nn4C)nn2-c2ccccc2)[C@H](c2ccccc2)C1` (racemic) [Compound I-65]: < 0.1 µM; `COCCN1C[C@@H](NC(=O)Nc2c(C)c(-c3ccnc(C(=O)NC4COC4)c3)nn2-c2ccccc2)[C@H](c2ccccc2)C1` (racemic) [Compound I-69]: < 0.1 µM; `COCCN1C[C@@H](NC(=O)Nc2c(C)c(-c3ccnc(C(=O)NC4CC(F)(F)C4)c3)nn2-c2ccccc2)[C@H](c2ccccc2)C1` (racemic) [Compound I-70]: < 0.1 µM. Still for that read-out and setting: for `COCCN1C[C@@H](NC(=O)Nc2c(C)c(-c3ccnc(C(=O)NC4CCCCC4)c3)nn2-c2ccccc2)[C@H](c2ccccc2)C1` (racemic) [Compound I-71] the value was < 0.1 µM; for `COCCN1C[C@@H](NC(=O)Nc2c(C)c(-c3ccnc(C(=O)NC4CCS(=O)(=O)CC4)c3)nn2-c2ccccc2)[C@H](c2ccccc2)C1` (racemic) [Compound I-73], < 0.1 µM; for `COCCN1C[C@@H](NC(=O)Nc2c(C)c(-c3cnc(OC)c(C(=O)NC4CCCCC4)c3)nn2-c2ccccc2)[C@H](c2ccccc2)C1` (racemic) [Compound I-77], < 0.1 µM. On the same count and under the same terms, next, `COCCN1C[C@@H](NC(=O)Nc2c(C)c(-c3cnc(OC)c(C(=O)NC4CCS(=O)(=O)CC4)c3)nn2-c2ccccc2)[C@H](c2ccccc2)C1` (racemic) [Compound I-79]: < 0.1 µM; `COCCN1C[C@@H](NC(=O)Nc2c(C)c(-c3cnc(OC)c(C(=O)NC4CC(F)(F)C4)c3)nn2-c2ccccc2)[C@H](c2ccccc2)C1` (racemic) [Compound I-81]: < 0.1 µM; `COCCN1C[C@@H](NC(=O)Nc2c(C)c(-c3cnc(OC)c(C(=O)NC4CCC(F)(F)CC4)c3)nn2-c2ccccc2)[C@H](c2ccccc2)C1` (racemic) [Compound I-83]: < 0.1 µM. On to `COCCN1C[C@@H](NC(=O)Nc2c(C)c(-c3cnc4c(c3)c(C)nn4C)nn2-c2ccccc2)[C@H](c2ccccc2)C1` (racemic) [Compound I-89], for which the IC50 was < 0.1 µM. As to `COCCN1C[C@@H](NC(=O)Nc2c(C)c(-c3ccc(N=S(C)(C)=O)nc3)nn2-c2ccccc2)[C@H](c2ccccc2)C1` (racemic) [Compound I-91], the IC50 was < 0.1 µM. The same measure, in the same setting: for `COCCN1C[C@@H](NC(=O)Nc2c(C)c(-c3cnc4c(c3)c(OC)nn4C)nn2-c2ccccc2)[C@H](c2ccccc2)C1` (racemic) [Compound I-95] the value was < 0.1 µM; for `COCCN1C[C@@H](NC(=O)Nc2c(C)c(-c3ccnc(N=S(C)(C)=O)c3)nn2-c2ccccc2)[C@H](c2ccccc2)C1` (racemic) [Compound I-96], < 0.1 µM. The same measure, in the same setting: next, `COCCN1C[C@@H](NC(=O)Nc2c(C)c(-c3cnc4c(c3)nc(CO)n4C)nn2-c2ccccc2)[C@H](c2ccccc2)C1` (racemic) [Compound I-97]: < 0.1 µM; `COCCN1C[C@@H](NC(=O)Nc2c(C)c(-c3cnn(C)c3)nn2-c2ccccc2)[C@H](c2cc(F)ncc2F)C1` (racemic) [Compound I-98]: < 0.1 µM. The same measure, in the same setting: for `COCCN1C[C@@H](NC(=O)Nc2c(C)c(-c3cnc4c(c3)c(=O)n(C)n4C)nn2-c2ccccc2)[C@H](c2ccccc2)C1` (racemic) [Compound I-99] the value was < 0.1 µM; for `COCCN1C[C@@H](NC(=O)Nc2c(C)c(-c3cnc(OC)c(C(=O)NC4CS(=O)(=O)C4)c3)nn2-c2ccccc2)[C@H](c2ccccc2)C1` (racemic) [Compound I-101], < 0.1 µM. As for `COCCN1C[C@@H](NC(=O)Nc2c(C)c(-c3cnc4c(c3)c(C)nn4C)nn2-c2ccccc2)[C@H](c2ccnc(F)c2)C1` (racemic) [Compound I-104], the IC50 was < 0.1 µM. On the same count and under the same terms, for `COCCN1C[C@@H](NC(=O)Nc2c(C)c(-c3cnc4c(c3)nnn4C)nn2-c2ccccc2)[C@H](c2ccnc(F)c2)C1` (racemic) [Compound I-105] the value was < 0.1 µM. Same read-out and setting: next, `COCCN1C[C@@H](NC(=O)Nc2c(C)c(-c3cncc(N=S(C)(C)=O)c3)nn2-c2ccccc2)[C@H](c2ccccc2)C1` (racemic) [Compound I-106]: < 0.1 µM. On the same count and under the same terms, for `COCCN1C[C@@H](NC(=O)Nc2c(C)c(-c3cnc4[nH]c(=O)oc4c3)nn2-c2ccccc2)[C@H](c2ccccc2)C1` (racemic) [Compound I-107] the value was < 0.1 µM. On to `COCCN1C[C@@H](NC(=O)Nc2c(C)c(-c3cc(C(=O)NC4CCCCC4)c(=O)n(C)c3)nn2-c2ccccc2)[C@H](c2ccccc2)C1` (racemic) [Compound I-108], for which the IC50 was < 0.1 µM. Regarding `COCCN1C[C@@H](NC(=O)Nc2c(C)c(-c3cc(C(=O)N[C@@H]4CCCOC4)c(=O)n(C)c3)nn2-c2ccccc2)[C@H](c2ccccc2)C1` (racemic) [Compound I-109], the IC50 was < 0.1 µM. Same read-out and setting: for `COCCN1C[C@@H](NC(=O)Nc2c(C)c(-c3cc(C(=O)NC4CCS(=O)(=O)CC4)c(=O)n(C)c3)nn2-c2ccccc2)[C@H](c2ccccc2)C1` (racemic) [Compound I-110] the value was < 0.1 µM. On the same count and under the same terms, next, `COCCN1C[C@@H](NC(=O)Nc2c(C)c(-c3cc(C(=O)N[C@H]4CCOC4)c(=O)n(C)c3)nn2-c2ccccc2)[C@H](c2ccccc2)C1` (racemic) [Compound I-111]: < 0.1 µM; `COCCN1C[C@@H](NC(=O)Nc2c(C)c(-c3cc(C(=O)N[C@@H]4CCOC4)c(=O)n(C)c3)nn2-c2ccccc2)[C@H](c2ccccc2)C1` (racemic) [Compound I-112]: < 0.1 µM; `COCCN1C[C@@H](NC(=O)Nc2c(C)c(-c3cc(C(=O)NC4CC(F)(F)C4)c(=O)n(C)c3)nn2-c2ccccc2)[C@H](c2ccccc2)C1` (racemic) [Compound I-113]: < 0.1 µM. The same measure, in the same setting: next, `COCCN1C[C@@H](NC(=O)Nc2c(C)c(-c3cc(C(=O)NC[C@@H](C)O)c(=O)n(C)c3)nn2-c2ccccc2)[C@H](c2ccccc2)C1` (racemic) [Compound I-114]: < 0.1 µM; `COCCN1C[C@@H](NC(=O)Nc2c(C)c(-c3cc(C(=O)NC(C)(C)CO)c(=O)n(C)c3)nn2-c2ccccc2)[C@H](c2ccccc2)C1` (racemic) [Compound I-115]: < 0.1 µM; `COCCN1C[C@@H](NC(=O)Nc2c(C)c(-c3cnc(N=S(C)(C)=O)c(C)c3)nn2-c2ccccc2)[C@H](c2ccccc2)C1` (racemic) [Compound I-121]: < 0.1 µM. On to `CCOc1ncc(-c2nn(-c3ccccc3)c(NC(=O)N[C@@H]3CN(CCOC)C[C@H]3c3ccccc3)c2C)cc1C(=O)NC` (racemic) [Compound I-122], for which the IC50 is < 0.1 µM. The same measure, in the same setting: next, `CNC(=O)c1cc(-c2nn(-c3ccccc3)c(NC(=O)N[C@@H]3CN(CCOC)C[C@H]3c3ccccc3)c2C)cnc1OCCO` (racemic) [Compound I-123]: < 0.1 µM; `CNC(=O)c1cc(-c2nn(-c3ccccc3)c(NC(=O)N[C@@H]3CN(CCOC)C[C@H]3c3ccccc3)c2C)cnc1OCCOC` (racemic) [Compound I-124]: < 0.1 µM; `CNC(=O)c1cc(-c2nn(-c3ccccc3)c(NC(=O)N[C@@H]3CN(CCOC)C[C@H]3c3ccccc3)c2C)cnc1OCC(F)F` (racemic) [Compound I-125]: < 0.1 µM.

The same test, now with this note: human TrkA phosphorylation inhibition, ATP 500 μmol/L; read-out: IC50 value.
Consider `COCCN1C[C@@H](NC(=O)Nc2c(C)c(-c3cnc4c(c3)oc(=O)n4C)nn2-c2ccccc2)[C@H](c2ccccc2)C1` (racemic) [Compound I-76], for which the IC50 came out at 0.0031 µM. Still for that read-out and setting: for `COCCN1C[C@@H](NC(=O)Nc2c(C)c(-c3cnc4c(cnn4C)c3)nn2-c2ccccc2)[C@H](c2ccnc(F)c2)C1` (racemic) [Compound I-90] the value was 0.0022 µM; for `COCCN1C[C@@H](NC(=O)Nc2c(C)c(-c3ccnc(C(=O)NOC)c3)nn2-c2ccccc2)[C@H](c2ccccc2)C1` (racemic) [Compound I-100], 0.0068 µM.
